PubChem BioAssay (NCI)
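Test compounds were applied to cells in 96-well plates for 48 hours at 5 doses. The concentration for full growth arrest is given as TGI.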

Legend:
Test in all cases: NCI tumour cell line growth inhibition, 48 h
RPMI-8226 leukemia = test system: RPMI-8226 leukemia
LOX IMVI melanoma = test system: LOX IMVI melanoma
UACC-62 melanoma = test system: UACC-62 melanoma
SF-295 CNS = test system: SF-295 CNS
UO-31 renal = test system: UO-31 renal
NCI-H460 lung = test system: NCI-H460 lung
SK-MEL-2 melanoma = test system: SK-MEL-2 melanoma
CAKI-1 renal = test system: CAKI-1 renal
SW-620 colon = test system: SW-620 colon
UACC-257 melanoma = test system: UACC-257 melanoma
OVCAR-3 ovarian = test system: OVCAR-3 ovarian
NCI-H522 lung = test system: NCI-H522 lung
IGROV1 ovarian = test system: IGROV1 ovarian
HCT-116 colon = test system: HCT-116 colon
LXFL 529 NSCLC = test system: LXFL 529 NSCLC
HOP-92 NSCLC = test system: HOP-92 NSCLC
SNB-78 CNS = test system: SNB-78 CNS
DLD-1 colon = test system: DLD-1 colon
SK-MEL-5 melanoma = test system: SK-MEL-5 melanoma
MOLT-4 leukemia = test system: MOLT-4 leukemia
A498 renal = test system: A498 renal
OVCAR-5 ovarian = test system: OVCAR-5 ovarian
M14 melanoma = test system: M14 melanoma
HOP-18 NSCLC = test system: HOP-18 NSCLC
CCRF-CEM leukemia = test system: CCRF-CEM leukemia
DMS 114 small cell lung = test system: DMS 114 small cell lung
HCT-15 colon = test system: HCT-15 colon
DMS 273 small cell lung = test system: DMS 273 small cell lung
HOP-62 NSCLC = test system: HOP-62 NSCLC
SN12C renal = test system: SN12C renal
EKVX NSCLC = test system: EKVX NSCLC
HL-60(TB) leukemia = test system: HL-60(TB) leukemia
SF-539 CNS = test system: SF-539 CNS
SK-MEL-28 melanoma = test system: SK-MEL-28 melanoma
XF 498 CNS = test system: XF 498 CNS
HCC-2998 colon = test system: HCC-2998 colon
MALME-3M melanoma = test system: MALME-3M melanoma
OVCAR-4 ovarian = test system: OVCAR-4 ovarian
RXF-631 renal = test system: RXF-631 renal
TK-10 renal = test system: TK-10 renal
NCI-H23 lung = test system: NCI-H23 lung
KM12 colon = test system: KM12 colon
HT29 colon = test system: HT29 colon
SF-268 CNS = test system: SF-268 CNS
NCI-H226 lung = test system: NCI-H226 lung
ACHN renal = test system: ACHN renal
SNB-75 CNS = test system: SNB-75 CNS
A549 NSCLC = test system: A549 NSCLC
SNB-19 CNS = test system: SNB-19 CNS
786-0 renal = test system: 786-0 renal
OVCAR-8 ovarian = test system: OVCAR-8 ovarian
COLO 205 colon = test system: COLO 205 colon
M19-MEL melanoma = test system: M19-MEL melanoma
SK-OV-3 ovarian = test system: SK-OV-3 ovarian
KM20L2 colon = test system: KM20L2 colon
RXF 393 renal = test system: RXF 393 renal
U251 CNS = test system: U251 CNS
K-562 leukemia = test system: K-562 leukemia

SMILES: C=CN1C(=O)OC[C@@H]1c1ccccc1
- TGI (RPMI-8226 leukemia): > 100 µM
- TGI (LOX IMVI melanoma): > 100 µM
- TGI (UACC-62 melanoma): > 100 µM
- TGI (SF-295 CNS): > 100 µM
- TGI (UO-31 renal): > 100 µM
- TGI (NCI-H460 lung): > 100 µM
- TGI (SK-MEL-2 melanoma): > 100 µM
- TGI (CAKI-1 renal): > 100 µM
- TGI (SW-620 colon): 37.9 µM
- TGI (UACC-257 melanoma): > 100 µM
- TGI (OVCAR-3 ovarian): > 100 µM
- TGI (NCI-H522 lung): > 100 µM
- TGI (IGROV1 ovarian): > 100 µM
- TGI (HCT-116 colon): > 100 µM
- TGI (LXFL 529 NSCLC): > 100 µM
- TGI (HOP-92 NSCLC): > 100 µM
- TGI (SNB-78 CNS): > 100 µM
- TGI (DLD-1 colon): > 100 µM
- TGI (SK-MEL-5 melanoma): > 100 µM
- TGI (MOLT-4 leukemia): > 100 µM
- TGI (A498 renal): > 100 µM
- TGI (OVCAR-5 ovarian): > 100 µM
- TGI (M14 melanoma): > 100 µM
- TGI (HOP-18 NSCLC): > 100 µM
- TGI (CCRF-CEM leukemia): > 100 µM
- TGI (DMS 114 small cell lung): > 100 µM
- TGI (HCT-15 colon): > 100 µM
- TGI (DMS 273 small cell lung): 50.7 µM
- TGI (HOP-62 NSCLC): > 100 µM
- TGI (SN12C renal): > 100 µM
- TGI (EKVX NSCLC): > 100 µM
- TGI (HL-60(TB) leukemia): > 100 µM
- TGI (SF-539 CNS): > 100 µM
- TGI (SK-MEL-28 melanoma): > 100 µM
- TGI (XF 498 CNS): > 100 µM
- TGI (HCC-2998 colon): > 100 µM
- TGI (MALME-3M melanoma): > 100 µM
- TGI (OVCAR-4 ovarian): > 100 µM
- TGI (RXF-631 renal): > 100 µM
- TGI (TK-10 renal): > 100 µM
- TGI (NCI-H23 lung): > 100 µM
- TGI (KM12 colon): > 100 µM
- TGI (HT29 colon): > 100 µM
- TGI (SF-268 CNS): > 100 µM
- TGI (NCI-H226 lung): > 100 µM
- TGI (ACHN renal): > 100 µM
- TGI (SNB-75 CNS): > 100 µM
- TGI (A549 NSCLC): > 100 µM
- TGI (SNB-19 CNS): > 100 µM
- TGI (786-0 renal): > 100 µM
- TGI (OVCAR-8 ovarian): > 100 µM
- TGI (COLO 205 colon): > 100 µM
- TGI (M19-MEL melanoma): > 100 µM
- TGI (SK-OV-3 ovarian): > 100 µM
- TGI (KM20L2 colon): > 100 µM
- TGI (RXF 393 renal): > 100 µM
- TGI (U251 CNS): > 100 µM
- TGI (K-562 leukemia): > 100 µM
